Laboratory results published in patent US20210277020A1, “HETEROCYCLIC COMPOUNDS AS MONOACYLGLYCEROL LIPASE INHIBITORS” (Hoffmann-La Roche Inc., priority 2018, published 2021).

The molecules below were run against T1, MAGL (Homo sapiens, UniProt Q99685) (assay: 2-AG assay: MAGL inhibition followed by hydrolysis of 2-arachidonoylglycerol to arachidonic acid, mass spectrometry). Conditions: measured in 2-AG assay (footnote [a]); substrate 2-arachidonoylglycerol 8 μM, 30 min at RT.
T1 sequence (Q99685 1-303): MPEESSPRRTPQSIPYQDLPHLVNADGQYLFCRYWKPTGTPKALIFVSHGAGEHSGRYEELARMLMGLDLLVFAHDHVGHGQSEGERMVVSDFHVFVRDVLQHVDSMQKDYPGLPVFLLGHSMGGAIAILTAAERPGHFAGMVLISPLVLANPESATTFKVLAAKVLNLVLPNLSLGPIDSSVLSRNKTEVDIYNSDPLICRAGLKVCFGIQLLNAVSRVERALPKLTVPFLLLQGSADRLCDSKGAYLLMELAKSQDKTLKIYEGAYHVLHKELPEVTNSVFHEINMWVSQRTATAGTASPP
Format: biochemical
Description: Alternatively, compounds were profiled for MAGL inhibitory activity by determining the enzymatic activity by following the hydrolysis of the natural substrate, 2-arachidonoylglycerol, resulting in arachidonic acid, which can be followed by mass spectrometry. This assay is hereinafter abbreviated “2-AG assay”.
Detection by mass spectrometry in the present 2-AG assay has the advantage over known optical assays that the natural enzyme substrate, 2-arachidonoylglycerol, can be used instead of structurally unrelated compounds needed for optical readouts (such as 4-NPA). It thereby delivers more relevant data for activity determination, reduces false positives and generally adds to data quality. In addition, this assay reduces the analysis time from about 10 minutes per sample with standard methods to under 10 seconds per sample. This allows for using the present 2-AG assay in a method for high throughput screening of compounds for their MAGL inhibitory activity.
The 2-AG assay was carried out in 384 well assay plates (PP, Greiner Cat #784201) in a total volume of 20 μL. Compound dilutions were made in 100% DMSO (VWR Chemicals 23500.297) in a polypropylene plate in 3-fold dilution steps to give a final concentration range in the assay from 12.5 μM to […]. 0.25 μL compound dilutions (100% DMSO) were added to 9 μL MAGL in assay buffer (50 mM TRIS (GIBCO, 15567-027), 1 mM EDTA (Fluka, 03690-100 mL), 0.01% (v/v) Tween. After shaking, the plate was incubated for 15 min at RT. To start the reaction, 10 μL 2-arachidonoylglycerol in assay buffer was added. The final concentrations in the assay was […] and 8 μM 2-arachidonoylglyerol. After shaking and 30 min incubation at RT, the reaction was quenched by the addition of 40 μL of acetonitrile containing 4 μM of d8-arachidonic acid. The amount of arachidonic acid was traced by an online SPE system (Agilent Rapidfire) coupled to a triple quadrupole mass spectrometer (Agilent 6460). A C18 SPE cartridge (G9205A) was used in an acetonitrile/water liquid setup. The mass spectrometer was operated in negative electrospray mode following the mass transitions 303.1→259.1 for arachidonic acid and 311.1→267.0 for d8-arachidonic acid. The activity of the compounds was calculated based on the ratio of intensities [arachidonic acid/d8-arachidonic acid].
In a preferred embodiment, the method for determining the MAGL inhibitory activity of a test compound according to the invention, comprises: • (i) providing a solution of a test compound; • (ii) adding the solution of step (i) to a solution of MAGL; • (iii) shaking the mixture obtained from step (ii); • (iv) incubating the mixture obtained from step (iii); • (v) adding a solution of 2-arachidonoylglycerol; • (vi) incubating the mixture obtained from step (v); • (vii) adding a solution of d8-arachidonic acid; and • (viii) determining the ratio of intensities arachidonic acid/d8-arachidonic acid using a mass spectrometer.

Row | Compound | IC50 [nM]
1 | Cc1ccccc1C#CC1CN(C(=O)N2CC[C@@H]3OCC(=O)N[C@@H]3C2)C1 [Example 173, (4aR,8aS)-6-(3-(o-Tolylethynyl)azetidine-1-carbonyl)hexahydro-2H-pyrido[4,3-b][1,4]oxazin-3(4H)-one] | 10
2 | CS(=O)(=O)c1ccc(C#CC2CN(C(=O)N3CC[C@@H]4OCC(=O)N[C@@H]4C3)C2)cc1 [Example 186, (4aR,8aS)-6-[3-[2-(4-Methylsulfonylphenyl)ethynyl]azetidine-1-carbonyl]-4,4a,5,7,8,8a-hexahydropyrido[4,3-b][1,4]oxazin-3-one] | 753
3 | O=C1CO[C@H]2CCN(C(=O)N3CC(CNC(c4ccc(C(F)(F)F)cc4)C(F)(F)F)C3)C[C@H]2N1 (stereo partly drawn) [Example 41, (4aR,8aS)-6-[3-[[[2,2,2-Trifluoro-1-[4-(trifluoromethyl)phenyl]ethyl]amino]methyl]azetidine-1-carbonyl]hexahydro-2H-pyrido[4,3-b][1,4]oxazin-3(4H)-one] | 24
4 | O=C1CO[C@H]2CCN(C(=O)N3CCC(O)(C#Cc4ccccc4Cl)CC3)C[C@H]2N1 [Example 132, (+)-(4aR,8aS)-6-[4-[2-(2-Chlorophenyl)ethynyl]-4-hydroxypiperidine-1-carbonyl]-4,4a,5,7,8,8a-hexahydropyrido[4,3-b][1,4]oxazin-3-one] | 889
5 | COc1cccc(C#CC2CN(C(=O)N3CC[C@@H]4OCC(=O)N[C@@H]4C3)C2)c1 [Example 181, (4aR,8aS)-6-[3-[2-(3-Methoxyphenyl)ethynyl]azetidine-1-carbonyl]-4,4a,5,7,8,8a-hexahydropyrido[4,3-b][1,4]oxazin-3-one] | 13
6 | O=C1CO[C@H]2CCN(C(=O)N3CC(CNC(c4cccc(C(F)(F)F)c4)C(F)(F)F)C3)C[C@H]2N1 (stereo partly drawn) [Example 68, (4aR,8aS)-6-(3-(((2,2,2-Trifluoro-1-(3-(trifluoromethyl)phenyl)ethyl)amino)methyl)azetidine-1-carbonyl)hexahydro-2H-pyrido[4,3-b][1,4]oxazin-3(4H)-one] | 18
7 | COc1cccc(C#CC2CN(C(=O)N3CC[C@@H]4OCC(=O)N[C@@H]4C3)C2)c1C [Example 183, (4aR,8aS)-6-[3-[2-(3-Methoxy-2-methylphenyl)ethynyl]azetidine-1-carbonyl]-4,4a,5,7,8,8a-hexahydropyrido[4,3-b][1,4]oxazin-3-one] | 11
8 | O=C1CO[C@H]2CCN(C(=O)N3CC(C#Cc4csc(Cl)c4)C3)C[C@H]2N1 [Example 188, (4aR,8aS)-6-[3-[2-(5-Chlorothiophen-3-yl)ethynyl]azetidine-1-carbonyl]-4,4a,5,7,8,8a-hexahydropyrido[4,3-b][1,4]oxazin-3-one] | 13
9 | CN(C(=O)Cc1cc(C(F)(F)F)ccc1Cl)C1CCN(C(=O)N2CC[C@@H]3OCC(=O)N[C@@H]3C2)CC1 [Example 84, N-[1-[(4aR,8aS)-3-oxo-4,4a,5,7,8,8a-hexahydropyrido[4,3-b][1,4]oxazine-6-carbonyl]piperidin-4-yl]-2-[2-chloro-5-(trifluoromethyl)phenyl]-N-methylacetamide] | 1140
10 | CN(c1ccc(C(F)(F)F)cc1)C1CN(C(=O)N2CC[C@@H]3OCC(=O)N[C@@H]3C2)C1 (racemic) [Example 137, rac-(4aR,8aS)-6-[3-[N-methyl-4-(trifluoromethyl)anilino]azetidine-1-carbonyl]-4,4a,5,7,8,8a-hexahydropyrido[4,3-b][1,4]oxazin-3-one] | 1100
11 | O=C1CO[C@H]2CCN(C(=O)N3CC(C#Cc4ccc(Cl)cc4Cl)C3)C[C@H]2N1 [Example 134, (+)-(4aR,8aS)-6-(3-((2,4-Dichlorophenyl)ethynyl)azetidine-1-carbonyl)hexahydro-2H-pyrido[4,3-b][1,4]oxazin-3(4H)-one] | 5
12 | N#Cc1cccc(Cl)c1C#CC1CN(C(=O)N2CC[C@@H]3OCC(=O)N[C@@H]3C2)C1 [Example 176, 2-[2-[1-[(4aR,8aS)-3-oxo-4,4a,5,7,8,8a-Hexahydropyrido[4,3-b][1,4]oxazine-6-carbonyl]azetidin-3-yl]ethynyl]-3-chlorobenzonitrile] | 50
13 | O=C1CO[C@H]2CCN(C(=O)N3CC(CSc4ccc(C(F)(F)F)cc4Cl)C3)C[C@H]2N1 [Example 148, (4aR,8aS)-6-[3-[[2-Chloro-4-(trifluoromethyl)phenyl]sulfanylmethyl]azetidine-1-carbonyl]-4,4a,5,7,8,8a-hexahydropyrido[4,3-b][1,4]oxazin-3-one] | 2
14 | CC1(C#Cc2ccc(F)cc2Cl)CCN(C(=O)N2CC[C@@H]3OCC(=O)N[C@@H]3C2)CC1 [Example 197, (4aR,8aS)-6-(4-((2-Chloro-4-fluorophenyl)ethynyl)-4-methylpiperidine-1-carbonyl)hexahydro-2H-pyrido[4,3-b][1,4]oxazin-3(4H)-one] | 230

Continued by falling IC50, values first:

Row | IC50 [nM] | Compound
15 | 5620 | O=C1CO[C@H]2CCN(C(=O)N3CC([S+]([O-])c4ccc(C(F)(F)F)cc4Cl)C3)C[C@H]2N1 (mixture of isomers) [Example 145, (4aR,8aS)-6-[3-[2-Chloro-4-(trifluoromethyl)phenyl]sulfinylazetidine-1-carbonyl]-4,4a,5,7,8,8a-hexahydropyrido[4,3-b][1,4]oxazin-3-one]
16 | 2640 | O=C1CO[C@H]2CCN(C(=O)N3CC(S(=O)(=O)c4ccc(C(F)(F)F)cc4Cl)C3)C[C@H]2N1 [Example 144, (4aR,8aS)-6-[3-[2-Chloro-4-(trifluoromethyl)phenyl]sulfonylazetidine-1-carbonyl]-4,4a,5,7,8,8a-hexahydropyrido[4,3-b][1,4]oxazin-3-one]
17 | 103 | O=C1CO[C@H]2CCN(C(=O)N3CCC(C#Cc4cccc(Cl)c4)CC3)C[C@H]2N1 [Example 129, (+)-(4aR,8aS)-6-[4-[2-(3-Chlorophenyl)ethynyl]piperidine-1-carbonyl]-4,4a,5,7,8,8a-hexahydropyrido[4,3-b][1,4]oxazin-3-one]
18 | 36 | O=C1CO[C@H]2CCN(C(=O)N3CC(C#Cc4cc(F)ccc4Cl)C3)C[C@H]2N1 [Example 185, (4aR,8aS)-6-[3-[2-(2-Chloro-5-fluorophenyl)ethynyl]azetidine-1-carbonyl]-4,4a,5,7,8,8a-hexahydropyrido[4,3-b][1,4]oxazin-3-one]
19 | 33 | O=C1CO[C@H]2CCN(C(=O)N3CC(C#Cc4ccccc4OC(F)F)C3)C[C@H]2N1 [Example 175, (4aR,8aS)-6-[3-[2-[2-(Difluoromethoxy)phenyl]ethynyl]azetidine-1-carbonyl]-4,4a,5,7,8,8a-hexahydropyrido[4,3-b][1,4]oxazin-3-one]
20 | 22 | O=C1CO[C@H]2CCN(C(=O)N3CC(C#Cc4ccc(OC(F)F)cc4)C3)C[C@H]2N1 [Example 177, (4aR,8aS)-6-[3-[2-[4-(Difluoromethoxy)phenyl]ethynyl]azetidine-1-carbonyl]-4,4a,5,7,8,8a-hexahydropyrido[4,3-b][1,4]oxazin-3-one]
21 | 9 | O=C1CO[C@H]2CCN(C(=O)N3CC(C#Cc4ccc(OC(F)(F)F)cc4)C3)C[C@H]2N1 [Example 166, (4aR,8aS)-6-[3-[2-[4-(Trifluoromethoxy)phenyl]ethynyl]azetidine-1-carbonyl]-4,4a,5,7,8,8a-hexahydropyrido[4,3-b][1,4]oxazin-3-one]
22 | 8 | O=C1CO[C@H]2CCN(C(=O)N3CC(C#Cc4cccc(Cl)c4)C3)C[C@H]2N1 [Example 165, (4aR,8aS)-6-[3-[2-(3-Chlorophenyl)ethynyl]azetidine-1-carbonyl]-4,4a,5,7,8,8a-hexahydropyrido[4,3-b][1,4]oxazin-3-one]
